This experiment addresses T1, HLA-A2 (Homo sapiens, UniProt P04439, D140Y/D185E/D98H/E176V/E277Q/G131W/G231S/I119V/I121R/I166T/I218V/L300P/L318F/N151K/N90K/P208A/P217A/Q86G/Q94H/R138H/R169H/T345S).
T1 construct: stabilization of the class 1 molecule after loading of peptide to the peptide transporter deficient cell line T2; endogenous in cells; host or cells: T2 (TAP-deficient human cell line), metabolically labelled with [35S]-methionine and lysed
Briefly: Assembly assay for peptide binding to class I MHC molecules. Particulars: concentration of the peptide required for half maximal binding to HLA-A2; read-out: C50. The method, then: Assembly assays for binding of the synthetic peptides to class I MHC molecules metabolically labeled with [^35S]-methionine can be carried out as described below. It will be appreciated by the person skilled in the art that the protocol may be adopted for any peptide and any class I MHC molecule.
Briefly, TAP deficient cells were metabolically labeled with [^35S]-methionine (Amersham, Freiburg, Germany). The cells were lyzed in 0.5 ml lysis buffer (150 mM NaCl, 50 mM TrisHCl, 0.5% NP-40 (Fluka, Buchs, Switzerland), 5 mM EDTA, pH 7.5) with 0.5% Mega-9 (Sigma, St. Louis, USA) in the presence of protease inhibitors (2 mM PMSF, 5 mM iodoacetamide, 2 μg/ml pepstatin, 2 μg/ml leupeptin) with or without synthetic peptide (for a list of positive control peptides, see Table 2).
After 20 min of incubation, the cell nuclei were removed by centrifugation (5 min, 10,000 g) and 50 μl (10% v/v) freshly washed Staphylococcus aureus organisms (Pansorbin, Calbiochem, Nottingham, UK). The next day Pansorbin was removed by centrifugation (12 min, 16,000 g) and the appropriate monoclonal antibody was added at a final concentration of 10 μg/ml, incubated for 90 min, followed by addition of protein A-Sepharose (75 μl, 10% v/v) and incubation for 1 h. The beads were washed 4 times and stored at −20° C. until analysis by electrophoresis.
In the case of an assembly assay with the HLA class I-specific conformation-dependent monoclonal antibody W6/32, samples were eluted in reducing buffer (9.5 M urea, 2% NP-40, 5% 2-mercaptoethanol, 2% Ampholines, pH range 3.5-9.5 (Pharmacia Biotech, Uppsala, Sweden)) and focused for 16 h at 880 V on 5.5% polyacrylamide isoelectric focusing (IEF) gels^20,39.
Samples from assembly assays with allele-specific antibodies were eluted by boiling (5 min) in SDS reducing buffer (50 mM TrisHCl pH 6.8, 2% SDS, 5% 2-mercaptoethanol, 10% glycerol, 2.5% bromophenol blue) and electrophorezed on 12% SDS-PAGE gels (1 h at 200 V). All gels were fixed in 10% acetic acid with 5% methanol and dried onto 3 MM paper (Whatman, Maidstone, UK). MHC heavy chain bands were quantified using the Imagequant Phosphorimager program (Molecular Dynamics, Sunnyvale, Calif., USA). The intensity of the band is directly related to the amount of peptide-bound class I MHC complex recovered during the assay. C50 value (μM) as the concentration of the peptide required for half maximal binding to MHC may thus be determined. The binding affinities of the analysed peptides are determined according to their efficiency of stabilising the HLA class I molecules. The binding affinity is represented as the peptide concentration required to reach half-maximal stabilistation of appropriate HLA-molecule.
Assembly assays for binding of the synthetic peptides to class I MHC molecules metabolically labeled with [^35S]-methionine were carried out as described^15,16. The assembly assay is based on stabilization of the class 1 molecule after loading of peptide to the peptide transporter deficient cell line T2. Subsequently correctly folded stable MHC heavy chains are immunoprecipitated using conformation-dependent antibodies. After IEF electrophoresis, gels were exposed to phosphorImager screens, and peptide binding was quantitated using the Imagequant PhosphorImager program (Molecular Dynamics, Sunnyvale, Calif.).

These results are taken from patent publication US7687465B2, “Therapeutic cancer vaccine” (Kraeftens Bekaempelse, priority 2003, dated 2010).

Structures are written as SMILES.

Take `CC(C)C[C@H](NC(=O)[C@@H](N)CCCNC(=N)N)C(=O)N[C@@H](CCC(N)=O)C(=O)N[C@@H](CCC(=O)O)C(=O)N[C@@H](CCC(=O)O)C(=O)N[C@@H](CCCNC(=N)N)C(=O)N[C@H](C(=O)N[C@@H](CS)C(=O)N[C@@H](CCCCN)C(=O)N[C@H](C(=O)O)C(C)C)[C@@H](C)O` [ML-IAP245]: the EC50 was 1000 nM.
